Experimental data reported in paper PMC4015918, “Conjugation to a SMAC mimetic potentiates sigma-2 ligand induced tumor cell death in ovarian cancer” (Molecular Cancer, 2014).

Key:
SKOV3-Luc xenografts = test: Intraperitoneal SKOV3-Luc xenograft model of ovarian cancer (bioluminescence imaging, survival); assay type: in vivo, SCID mice; settings: for Tumor response by bioluminescence signal intensity during treatment: start 7 days after inoculation, first week onward; for Median survival: daily i.p. for 3 weeks, 10 mice per group followed, vehicle 74 days
From the text: Figure 6 SW IV-134 is a potent single-agent cancer drug in a peritoneal mouse xenograft model of ovarian cancer. (A) Female SCID mice were inoculated intraperitoneally with 5 × 10^6 SKOV3-Luc cells. Treatment was initiated with intraperitoneal injections of SW43, SW IV-134, or vehicle control 7 days after tumor cell inoculation, and continued for a total of 3 weeks. Mice were imaged once a week during the treatment period. Change in bioluminescence photon flux during treatment in each experimental arm (n = 15) was evaluated. Bioluminescent signals at each time point were averaged per treatment group (mean ± SEM). Significant differences were noted between vehicle vs. SW IV-134 and SW43 vs. SW IV-134 (p < 0.0097, one-way ANOVA). (B) Bioluminescent images at the end of the treatment (day 21) of one representative mouse per treatment arm (n = 15). […] (C) Kaplan-Meier survival analysis. At the end of the 3 week treatment, 5 mice from each experimental group were subjected to necropsy. The remaining 10 mice from each treatment group were followed until death to examine overall survival (p < 0.0108, Log-rank test).
All studies were performed in accordance with an animal protocol approved by the Washington University Institutional Animal Care Facility. Female severe combined immunodeficient mice (SCID) were purchased from Taconic Farms (Hudson, NY) at age 6 weeks. SKOV3-Luc cells (5 × 10^6) were inoculated intraperitoneally and mice were randomized 7 days later into one of the three treatment groups according to their baseline luciferase activity employing bioluminescence imaging (BLI). For bioluminescence imaging, mice were injected intraperitoneally with 150 μg/g D-luciferin (Biosynth, Naperville, IL) in PBS, anesthetized with 2.5% isoflurane, and imaged with a charge-coupled device (CCD) camera-based bioluminescence imaging system (IVIS 100; Caliper, Hopkinton, MA; exposure time 300 seconds, binning 16, field of view 12, f/stop 1, open filter).
In vivo experiments were conducted with 15 mice per treatment group. Treatment involved daily intraperitoneal injections with 90 μL of SW43 (7.5 mM stock), SW IV-134 (7.5 mM stock), or vehicle-only (25% cremophor in H2O) for 3 weeks. Tumor burden was monitored by bioluminescence imaging once a week during the treatment period. At the end of the treatment, 5 mice were randomly removed per treatment group and submitted for necropsy to the Washington University Department of Comparative Medicine. Blood samples were collected by intracardiac withdrawal prior to necropsy for chemistry and hematology work-up. In addition, various key organs were harvested for gross and histopathological examination. The remaining 10 mice from each treatment group were followed over time to examine overall survival. For survival studies, actual death or poor physical condition/large tumor size meeting criteria for euthanasia, constituted a death event.

SKOV3 cells = test: Blocking study: competition with uptake of fluorescent sigma-2 ligand SW120, flow cytometry; assay type: cell-based; settings: SKOV3 cells pretreated 30 min with increasing concentrations, then 10 nM SW120 for 30 min
Procedure: Figure 1 Compound structures and cell binding characteristics of SW IV-134. (A) The chemical structures of sigma-2 ligand SW43, the SMAC peptidomimetic SW IV-52, and the chemical conjugate SW IV-134. Note that the chirality of SW IV-52 is fully retained in the drug conjugate (asterisks). […] SKOV3 cells were pretreated with increasing concentration of SW IV-134, followed by incubation with SW120, prior to analysis by flow cytometry.
SKOV3 cells (3 × 10^4/well) were seeded into 6 cm plates for 24 hours before treatment. The cells were incubated with 5, 10, 50, and 100 μM doses of SW IV-134 for 30 minutes at 37°C. After this step, 10 nM SW120 was added to the cell culture medium containing SW IV-134. After 30 minute incubation at 37°C, cells were washed twice with phosphate buffered saline (PBS) and harvested with 0.05% trypsin EDTA (Life Technologies, Grand Island, NY). The cells were centrifuged at 1000 × g for 5 minutes and pellets washed twice with PBS. Internalization of SW120 was determined by flow cytometer (FACSCalibur, BD Biosciences, San Jose, CA).
Supplementary file 1476-4598-13-50-S2.pdf: Additional file 2: Figure S1 Receptor binding characteristics of the individual components of SW IV-134. SKOV3 cells were pretreated with increasing concentration of (A) SW43 and (B) SW IV-52, followed by incubation with SW120, prior to analysis by flow cytometry. […] Click here for file

[1] = daily i.p. 90 μL of 7.5 mM stock

Row | SMILES | Tumor response by bioluminescence signal intensity during treatment (SKOV3-Luc xenografts; [1]) | Median survival (SKOV3-Luc xenografts) [days] | Blocking of SW120 uptake (SKOV3 cells) | Bioluminescence signal intensity at the end of the 3 week treatment (SKOV3-Luc xenografts; daily i.p. 90 μL of 7.5 mM stock, day 21) | Extension of median survival (SKOV3-Luc xenografts; intraperitoneal metastatic model) [days]
1 | COc1ccc(C)cc1NC(=O)OC1CC2CCCC(C1)N2CCCCCCCCCCN (centres unmarked) [SW43, reference compound] | signal intensity increased | 76.5 | prevents uptake of the fluorescently labeled sigma-2 ligand SW120 in a dose-dependent fashion |  | 
2 | COc1ccc(C)cc1NC(=O)OC1CC2CCCC(C1)N2CCCCCCCCCCN[C@@H](C)C(=O)N[C@H](C(=O)N1CCC[C@H]1C(=O)N[C@@H]1CCCc2ccccc21)C(C)(C)C (some centres unmarked) [SW IV-134] | Tumor regression was evident by the end of the first week of treatment | 86.5 | dose-dependent reduction of SW120 signal intensity | significantly lower than both the SW43 and the vehicle-only treatment groups | 10
